Test results: US20240150365A1 (Hotspot Therapeutics, Inc., priority 2022, published 2024)

What was measured:
MALT1 = target: T1, MALT1 (Homo sapiens, UniProt Q9UDY8); assay: MALT-1 Fluorogenic Peptide Cleavage Assay (MALT1 inhibition assay); format: biochemical; conditions: Avi-tagged FL MALT-1, Ac-LRSR-AMC peptide substrate, 30 min pre-incubation, 90 min reaction
T1 construct: Avi-tagged FL MALT-1 (Pharmaron, stored at −70° C.); Avi tag
T1 sequence (Q9UDY8 1-824): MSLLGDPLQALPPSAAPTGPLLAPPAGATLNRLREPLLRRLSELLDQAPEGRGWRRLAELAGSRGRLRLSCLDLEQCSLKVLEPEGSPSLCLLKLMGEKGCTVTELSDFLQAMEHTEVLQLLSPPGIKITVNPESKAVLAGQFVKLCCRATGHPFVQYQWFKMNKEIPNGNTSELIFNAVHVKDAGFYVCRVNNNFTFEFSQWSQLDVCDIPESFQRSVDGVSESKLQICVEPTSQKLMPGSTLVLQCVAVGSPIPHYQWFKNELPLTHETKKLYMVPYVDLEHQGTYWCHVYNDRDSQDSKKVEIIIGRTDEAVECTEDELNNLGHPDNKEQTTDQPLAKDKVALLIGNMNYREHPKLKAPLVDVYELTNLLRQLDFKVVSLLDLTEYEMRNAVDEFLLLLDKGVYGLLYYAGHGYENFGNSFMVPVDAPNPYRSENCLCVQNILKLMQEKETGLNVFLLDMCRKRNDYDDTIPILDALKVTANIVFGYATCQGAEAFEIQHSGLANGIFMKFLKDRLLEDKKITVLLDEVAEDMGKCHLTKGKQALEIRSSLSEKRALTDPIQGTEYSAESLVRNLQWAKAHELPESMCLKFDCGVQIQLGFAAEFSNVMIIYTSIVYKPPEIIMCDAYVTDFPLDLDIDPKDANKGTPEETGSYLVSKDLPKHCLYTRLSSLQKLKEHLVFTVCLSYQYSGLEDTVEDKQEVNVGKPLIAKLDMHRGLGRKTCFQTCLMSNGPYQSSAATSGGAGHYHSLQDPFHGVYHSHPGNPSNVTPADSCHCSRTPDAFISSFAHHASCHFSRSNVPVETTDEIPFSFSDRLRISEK
Method in brief: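 Avi-tagged full-length MALT1 pre-incubated 30 min with compound (2% DMSO final), then cleavage of Ac-LRSR-AMC followed over 90 min at room temperature. AMC fluorescence read at 342/441 nm; % inhibition fitted to sigmoidal curves for IC50.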

NF-kB = NF-kB reporter assay in Jurkat cells stimulated with aCD3/aCD28/PMA; format: cell-based; conditions: Homo sapiens, Jurkat, Jurkat cells, 1 hr compound incubation, aCD3/aCD28/PMA stimulation 4 hr, One-Glo readout; read-out: NF-kB Reporter Assay IC50
Method in brief: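 Jurkat cells (25,000/well, serum-free RPMI 1640) preincubated 1 hr at 37° C with serially diluted compound, then stimulated with aCD3/aCD28/PMA (final 5 μg/mL, 5 μg/mL, 0.03 μg/mL) for 4 hr. Reporter luminescence read with One-Glo; IC50 derived.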

| IC50 (MALT1) [nM] | IC50 (NF-kB) [nM] | SMILES |
| --- | --- | --- |
| 400 to 1000 | < 400 | Cc1nc(C)c(-c2ccc(S(=O)(=O)Nc3cccc4cnn(C)c34)cn2)s1 [Example I-103, 6-(2,4-Dimethylthiazol-5-yl)-N-(1-Methyl-1H-Indazol-7-yl)Pyridine-3-Sulfonamide] |
| < 400 | < 400 | COc1ccc2cnn(C)c2c1N(C)S(=O)(=O)c1ccc(-c2cc(C(F)(F)F)nn2C)nc1 [Example I-104, N-(6-Methoxy-1-Methyl-1H-Indazol-7-yl)-N-Methyl-6-(1-Methyl-3-(Trifluoromethyl)-1H-Pyrazol-5-yl)Pyridine-3-Sulfonamide] |
| > 2500 | > 2500 | Cn1ncc2cccc(NS(=O)(=O)c3ccc(-n4cc(C(N)=O)cn4)nc3)c21 [Example I-105, 1-(5-(N-(1-Methyl-1H-Indazol-7-yl)Sulfamoyl)Pyridin-2-yl)-1H-Pyrazole-4-Carboxamide] |
| < 400 | < 400 | COc1ccc2[nH]nc(C)c2c1NS(=O)(=O)c1ccc(-n2cc(C(F)(F)F)cn2)nc1 [Example I-106, N-(5-Methoxy-3-Methyl-1H-Indazol-4-yl)-6-(4-(Trifluoromethyl)-1H-Pyrazol-1-yl)Pyridine-3-Sulfonamide] |
| > 2500 | < 400 | Cn1cc(-c2ccc(S(=O)(=O)Nc3cccc4cnn(C)c34)cn2)cn1 [Example I-107, N-(1-Methyl-1H-Indazol-7-yl)-6-(1-Methyl-1H-Pyrazol-4-yl)Pyridine-3-Sulfonamide] |
| > 2500 | < 400 | COc1cc(-c2ccc(S(=O)(=O)Nc3cccc4cnn(C)c34)cn2)ccn1 [Example I-108, 2′-Methoxy-N-(1-Methyl-1H-Indazol-7-yl)-[2,4′-Bipyridine]-5-Sulfonamide] |
| > 2500 | < 400 | Cn1ncc2cccc(NS(=O)(=O)c3ccc(-c4cccnc4)nc3)c21 [Example I-109, N-(1-Methyl-1H-Indazol-7-yl)-[2,3′-Bipyridine]-5-Sulfonamide] |
| > 2500 | < 400 | CN(C)c1ccc(-c2ccc(S(=O)(=O)Nc3cccc4cnn(C)c34)cn2)cn1 [Example I-110, 6′-(Dimethylamino)-N-(1-Methyl-1H-Indazol-7-yl)-[2,3′-Bipyridine]-5-Sulfonamide] |
| > 2500 | < 400 | COc1cccc(-c2ccc(S(=O)(=O)Nc3cccc4cnn(C)c34)cn2)n1 [Example I-111, 6′-Methoxy-N-(1-Methyl-1H-Indazol-7-yl)-[2,2′-Bipyridine]-5-Sulfonamide] |
| > 2500 | > 2500 | Cn1cc(-c2ccc(S(=O)(=O)Nc3cccc4cnn(C)c34)cn2)ccc1=O [Example I-112, 1′-Methyl-N-(1-Methyl-1H-Indazol-7-yl)-6′-Oxo-1′,6′-Dihydro-[2,3′-Bipyridine]-5-Sulfonamide] |
| > 2500 | 400 to 1000 | Cc1ncccc1-c1ccc(S(=O)(=O)Nc2cccc3cnn(C)c23)cn1 [Example I-113, 2′-Methyl-N-(1-Methylindazol-7-yl)-[2,3′-Bipyridine]-5-Sulfonamide] |
| > 2500 | > 2500 | Cc1ncncc1-c1ccc(S(=O)(=O)Nc2cccc3cnn(C)c23)cn1 [Example I-115] |
| > 2500 | 400 to 1000 | Cn1ncc2cccc(NS(=O)(=O)c3ccc(-c4ccncc4)nc3)c21 [Example I-116, N-(1-METHYL-1H-INDAZOL-7-YL)-[2,4′-BIPYRIDINE]-5-SULFONAMIDE] |
| > 2500 | > 2500 | Cn1ccc(-c2ccc(S(=O)(=O)Nc3cccc4cnn(C)c34)cn2)cc1=O [Example I-117, 1′-Methyl-N-(1-Methyl-1H-Indazol-7-yl)-2′-Oxo-1′,2′-Dihydro-[2,4′-Bipyridine]-5-Sulfonamide] |
| > 2500 | > 2500 | Cn1ncc2cccc(NS(=O)(=O)c3ccc(-c4cccc(=O)[nH]4)nc3)c21 [Example I-118, N-(1-Methyl-1H-Indazol-7-yl)-6′-Oxo-1′,6′-Dihydro-[2,2′-Bipyridine]-5-Sulfonamide] |
| > 2500 | < 400 | Cc1cc(-c2ccc(S(=O)(=O)Nc3cccc4cnn(C)c34)cn2)n(C)n1 [Example I-119, 6-(2,5-Dimethylpyrazol-3-yl)-N-(1-Methyl-Indazol-7-yl)Pyridine-3-Sulfonamide] |

| IC50 (MALT1) [nM] | IC50 (NF-kB) [nM] | SMILES |
| --- | --- | --- |
| > 2500 | < 400 | Cn1ncc2cccc(NS(=O)(=O)c3ccc(-c4ccncc4F)nc3)c21 [Example I-120, 3′-Fluoro-N-(1-Methylindazol-7-yl)-[2,4′-Bipyridine]-5-Sulfonamide] |
| > 2500 | < 400 | Cn1ncc2cccc(NS(=O)(=O)c3ccc(-c4cncc(Cl)c4)nc3)c21 [Example I-121, 5′-Chloro-N-(1-Methyl-1H-Indazol-7-yl)-[2,3′-Bipyridine]-5-Sulfonamide] |
| > 2500 | < 400 | Cc1ccc(-c2ccc(S(=O)(=O)Nc3cccc4cnn(C)c34)cn2)cn1 [Example I-122, 6′-Methyl-N-(1-Methyl-1H-Indazol-7-yl)-[2,3′-Bipyridine]-5-Sulfonamide] |
| > 2500 | 400 to 1000 | Cc1ccncc1-c1ccc(S(=O)(=O)Nc2cccc3cnn(C)c23)cn1 [Example I-123, 4′-Methyl-N-(1-Methyl-1H-Indazol-7-yl)-2,3′-Bipyridine-5-Sulfonamide] |
| > 2500 | > 2500 | Cc1cnn(C)c1-c1ccc(S(=O)(=O)Nc2cccc3cnn(C)c23)cn1 [Example I-124, 6-(1,4-Dimethyl-1H-Pyrazol-5-yl)-N-(1-Methyl-1H-Indazol-7-yl)Pyridine-3-Sulfonamide] |
| > 2500 | < 400 | COc1nn(C)cc1-c1ccc(S(=O)(=O)Nc2cccc3cnn(C)c23)cn1 [Example I-125, 6-(3-Methoxy-1-Methyl-1H-Pyrazol-4-yl)-N-(1-Methyl-1H-Indazol-7-yl)Pyridine-3-Sulfonamide] |
| < 400 | < 400 | CCc1ccc2cnn(C)c2c1NS(=O)(=O)c1ccc(-n2nccc2C(F)(F)F)nc1 [Example I-126, N-(6-ethyl-1-methyl-1H-indazol-7-yl)-6-(5-(trifluoromethyl)-1H-pyrazol-1-yl)pyridine-3-sulfonamide] |
| < 400 | < 400 | COc1ccc2cnn(C)c2c1NS(=O)(=O)c1ccc(-n2ccc(C(F)F)n2)nc1 [Example I-127, 6-(3-(Difluoromethyl)-1H-Pyrazol-1-yl)-N-(6-Methoxy-1-Methyl-1H-Indazol-7-yl)Pyridine-3-Sulfonamide] |
| 1000 to 2500 | 400 to 1000 | COc1ccc2nnn(C)c2c1NS(=O)(=O)c1ccc(-n2ccc(C(F)(F)F)n2)nc1 [Example I-128, N-(6-methoxy-1-methyl-1H-benzo[d][1,2,3]triazol-7-yl)-6-(3-(trifluoromethyl)-1H-pyrazol-1-yl)pyridine-3-sulfonamide] |
| < 400 | < 400 | COc1ccc2cnn(C)c2c1NS(=O)(=O)c1ccc(-n2cc(C)c(C)n2)nc1 [Example I-129, 6-(3,4-dimethyl-1H-pyrazol-1-yl)-N-(6-methoxy-1-methyl-1H-indazol-7-yl)pyridine-3-sulfonamide] |
| > 2500 | 1000 to 2500 | Cn1ncc2cccc(NS(=O)(=O)c3ccc(-c4cncc(C#N)c4)nc3)c21 [Example I-130, 5′-cyano-N-(1-methylindazol-7-yl)-[2,3′-bipyridine]-5-sulfonamide] |
| > 2500 | < 400 | Cc1cncc(-c2ccc(S(=O)(=O)Nc3cccc4cnn(C)c34)cn2)c1 [Example I-131, 5′-methyl-N-(1-methylindazol-7-yl)-[2,3′-bipyridine]-5-sulfonamide] |
| > 2500 | < 400 | Cc1cc(-c2ccc(S(=O)(=O)Nc3cccc4cnn(C)c34)cn2)ccn1 [Example I-132, 2′-methyl-N-(1-methylindazol-7-yl)-[2,4′-bipyridine]-5-sulfonamide] |
| > 2500 | > 2500 | Cn1ncc2cccc(NS(=O)(=O)c3ccc(-c4cncnc4)nc3)c21 [Example I-133, N-(1-methylindazol-7-yl)-6-(pyrimidin-5-yl)pyridine-3-sulfonamide] |
| > 2500 | < 400 | Cn1ncc2cccc(NS(=O)(=O)c3ccc(-c4cncc(F)c4)nc3)c21 [Example I-134, 5′-Fluoro-N-(1-Methyl-1H-Indazol-7-yl)-[2,3′-Bipyridine]-5-Sulfonamide] |
